Laboratory results published in ChEMBL document CHEMBL4610008, “Thiophene bioisosteres of GluN2B selective NMDA receptor antagonists: Synthesis and pharmacological evaluation of [7]annuleno[b]thiophen-6-amines” (Bioorg Med Chem, 2020).

What was measured:
[1] = target: Sigma non-opioid intracellular receptor 1 (Cavia porcellus, UniProt Q60492); experiment: Displacement of [3H]-(+)-pentazocine from sigma1 receptor in guinea pig brain membranes incubated for 120 mins by scintillation counting method; assay type: cell membranes, Membrane
Sigma non-opioid intracellular receptor 1, sequence (Q60492 whole entry): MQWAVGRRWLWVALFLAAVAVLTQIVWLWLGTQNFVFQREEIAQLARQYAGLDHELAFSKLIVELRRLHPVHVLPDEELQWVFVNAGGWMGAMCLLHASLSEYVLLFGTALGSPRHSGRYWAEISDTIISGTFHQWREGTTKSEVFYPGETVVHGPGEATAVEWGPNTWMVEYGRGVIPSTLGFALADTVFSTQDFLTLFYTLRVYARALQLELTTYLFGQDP

[2] = target: T1, Sigma intracellular receptor 2 (Rattus norvegicus, UniProt Q5U3Y7); experiment: Displacement of [3H]-di-o-tolylguanidine from sigma2 receptor in rat liver membranes incubated for 120 mins in the presence of sigma1 receptor ligand (+)-pentazocine by scintillation counting method; assay type: cell membranes, Membrane
T1 sequence (Q5U3Y7 whole entry): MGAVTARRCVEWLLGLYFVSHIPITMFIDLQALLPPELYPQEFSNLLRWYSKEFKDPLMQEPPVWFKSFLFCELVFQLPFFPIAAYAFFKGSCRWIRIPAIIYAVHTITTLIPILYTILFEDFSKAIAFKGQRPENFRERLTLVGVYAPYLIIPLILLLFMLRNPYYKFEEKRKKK

[3] = target: Glutamate receptor ionotropic, NMDA 2B (Homo sapiens, UniProt Q05586+Q13224); experiment: Displacement of [3H]ifenprodil from human recombinant GluN2B expressed in mouse L(tk-) cell membranes co-expressing GluN1a incubated for 120 mins by scintillation counting method
Glutamate receptor ionotropic, NMDA 2B, sequence (Q13224 whole entry, one chain of several): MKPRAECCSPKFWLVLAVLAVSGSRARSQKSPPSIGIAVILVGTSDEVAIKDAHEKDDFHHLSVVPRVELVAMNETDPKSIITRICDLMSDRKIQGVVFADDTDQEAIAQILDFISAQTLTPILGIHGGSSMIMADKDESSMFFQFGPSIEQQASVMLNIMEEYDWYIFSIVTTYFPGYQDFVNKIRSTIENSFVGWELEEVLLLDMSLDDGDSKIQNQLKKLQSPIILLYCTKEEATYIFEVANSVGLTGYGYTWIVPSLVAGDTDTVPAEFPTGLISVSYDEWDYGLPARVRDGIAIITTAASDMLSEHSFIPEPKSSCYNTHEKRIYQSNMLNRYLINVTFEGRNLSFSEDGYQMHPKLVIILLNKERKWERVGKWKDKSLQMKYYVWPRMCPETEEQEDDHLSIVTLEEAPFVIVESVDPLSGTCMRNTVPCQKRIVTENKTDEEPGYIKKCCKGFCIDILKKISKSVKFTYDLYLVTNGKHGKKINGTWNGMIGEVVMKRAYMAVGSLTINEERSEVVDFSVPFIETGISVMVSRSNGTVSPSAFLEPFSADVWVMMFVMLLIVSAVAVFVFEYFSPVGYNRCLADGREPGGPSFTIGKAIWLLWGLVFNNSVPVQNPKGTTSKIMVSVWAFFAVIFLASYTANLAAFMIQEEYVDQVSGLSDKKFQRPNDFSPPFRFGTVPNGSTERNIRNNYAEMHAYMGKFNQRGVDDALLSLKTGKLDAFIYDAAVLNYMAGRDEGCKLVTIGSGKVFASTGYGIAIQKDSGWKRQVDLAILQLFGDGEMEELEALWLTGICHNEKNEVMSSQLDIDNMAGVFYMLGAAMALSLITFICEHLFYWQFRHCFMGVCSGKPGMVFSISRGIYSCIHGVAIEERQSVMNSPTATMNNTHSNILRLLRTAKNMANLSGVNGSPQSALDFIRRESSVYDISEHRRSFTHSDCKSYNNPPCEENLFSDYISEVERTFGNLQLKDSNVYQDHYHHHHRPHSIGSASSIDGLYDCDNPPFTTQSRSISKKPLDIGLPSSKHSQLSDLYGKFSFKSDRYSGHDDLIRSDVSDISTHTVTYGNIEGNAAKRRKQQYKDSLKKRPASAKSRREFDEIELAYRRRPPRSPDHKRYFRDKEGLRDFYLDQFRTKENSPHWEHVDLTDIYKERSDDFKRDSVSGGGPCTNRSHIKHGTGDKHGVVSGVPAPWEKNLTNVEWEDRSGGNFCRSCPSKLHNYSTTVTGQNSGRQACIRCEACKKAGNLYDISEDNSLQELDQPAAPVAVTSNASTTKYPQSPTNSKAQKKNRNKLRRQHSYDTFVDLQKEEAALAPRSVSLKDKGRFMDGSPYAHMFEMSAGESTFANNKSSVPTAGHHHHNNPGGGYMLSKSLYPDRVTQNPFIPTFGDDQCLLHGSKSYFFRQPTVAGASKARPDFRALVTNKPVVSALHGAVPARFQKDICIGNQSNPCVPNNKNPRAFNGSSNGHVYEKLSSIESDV

[4] = Selectivity index, ratio of Ki for sigma2 receptor in rat liver membranes to Ki for human GluN2B expressed in mouse L(tk-) cell membranes co-expressing GluN1a; assay type: cell-based
[5] = Selectivity index, ratio of Ki for sigma1 receptor in guinea pig brain membranes to Ki for human GluN2B expressed in mouse L(tk-) cell membranes co-expressing GluN1a; assay type: cell-based
[6] = Cytoprotection against glutamate/glycine-induced cytotoxicity against mouse LTK cells expressing GluN1a/GluN2B assessed as inhibition of cell death incubated for 12 hrs by LDH assay; assay type: functional, cell-based

SMILES | Ki [1] [nM] | Ki [2] [nM] | Ki [3] [nM] | Ratio Ki [4] | Ratio Ki [5] | IC50 [6] [nM]
CN(CCc1ccccc1)C1CCc2ccsc2CC1 (configuration not stated) | 42 | 63 | 130 | – | – | –
c1ccc(CCCNC2CCc3ccsc3CC2)cc1 (configuration not stated) | 187 | 5.1 | 5.9 | – | – | –
CN(CCCCc1ccccc1)C1CCc2ccsc2CC1 (configuration not stated) | 17 | 12 | 9 | 1.5 to 2 | 1.5 to 2 | –
CCN(Cc1ccccc1)C1CCc2ccsc2CC1 (configuration not stated) | 60 | 149 | 61 | – | – | –
CN(CCc1ccccc1)C1CCc2cc(CO)sc2CC1 (configuration not stated) | 56 | 48 | 726 | – | – | –
c1ccc(CCNC2CCc3ccsc3CC2)cc1 (configuration not stated) | 133 | 56 | 33 | – | – | –
CN(CCCc1ccccc1)C1CCc2cc(CO)sc2CC1 (configuration not stated) | 6.4 | 21 | 141 | – | – | –
CN(Cc1ccccc1)C1CCc2ccsc2CC1 (configuration not stated) | 49 | 91 | 72 | – | – | –
Brc1cc2c(s1)CCC(NCCCCc1ccccc1)CC2 (configuration not stated) | 14 | 13 | 23 | – | – | –
OCc1cc2c(s1)CCC(NCCCCc1ccccc1)CC2 (configuration not stated) | 84 | 73 | 764 | – | – | –
CCN(CCCCc1ccccc1)C1CCc2ccsc2CC1 (configuration not stated) | 12 | 46 | 33 | – | – | –
CN(CCCc1ccccc1)C1CCc2ccsc2CC1 (configuration not stated) | 10 | 13 | 6 | 2 | 2 | –
CCN(CCCc1ccccc1)C1CCc2ccsc2CC1 (configuration not stated) | 17 | 33 | 51 | – | – | –
CCN(CCc1ccccc1)C1CCc2ccsc2CC1 (configuration not stated) | 59 | 141 | 196 | – | – | –
OCc1cc2c(s1)CCC(NCCCc1ccccc1)CC2 (configuration not stated) | 61 | 30 | 183 | – | – | –
Oc1ccc(-c2cc3c(s2)CCC(NCCCc2ccccc2)CC3)cc1 (configuration not stated) | 181 | 63 | 60 | – | – | –
COc1ccc2c(c1)CC[C@H](NCCCc1ccccc1)C[C@@H]2O (relative stereo) | – | – | – | – | – | 12
Clc1ccc2c(c1)CCC(NCCCc1ccccc1)CC2 (configuration not stated) | – | – | 2.1 | – | – | –
c1ccc(CCCCNC2CCc3ccsc3CC2)cc1 (configuration not stated) | 62 | 5.7 | 11 | – | – | –
Brc1cc2c(s1)CCC(NCCCc1ccccc1)CC2 (configuration not stated) | 41 | 43 | 13 | 3 | 3 | –
